US7053177B1, “Random peptides that bind to gastro-intestinal tract (GIT) transport receptors and related methods” (Cytogen Corporation, priority 1997, dated 2006)
Peptide text beside a SMILES is read from it. * marks the point of attachment. Dansyl = CN(C)c1cccc2c(S(=O)(=O)*)cccc12

Test system: P100 membrane fraction of Caco-2 cells
Test: Dansylated peptide ELISA: relative binding of PAX2 and HAX42 peptides to P100 fractions (ratio to ZElan021)
Conditions: ratio to ZElan021 = 1.00
Procedure: The peptides and proteins were analyzed by a dansylated peptide ELISA method in which 96 well plates were coated overnight at 4° C. with 100 μl/well coating protein (normally 100 μg/ml P100 membrane fraction) in 0.05M carbonate buffer pH9.6. Nonspecific binding was blocked using 200 μl/well, 2% Marvel/PBS for 2 hours at 37° C. prior to incubation with dansylated peptides. The plates were washed three times with PBS/0.05% Tween 20 and after each subsequent incubation step. […] A buffer blank control was included to ensure that background binding to plastic was not due to the antibodies used in the assay system. […] Plates were developed using 75 μl/well Bionostics TMB substrate and incubated for approximately 10 minutes. The developing reaction was stopped using Bionostics Red Stop solution (25 μl/well), and the optical density of the plates was read at 650 nm. […]

| Compound | Binding value at 20 μg/ml (HAX42 peptides) | Binding value at 50 μg/ml (HAX42 peptides, first column) | Binding value at 50 μg/ml (HAX42 peptides, second column) | Binding value at 20 μg/ml (PAX2 peptides, first column) | Binding value at 50 μg/ml (Jackson Ab) (PAX2 peptides) | Binding value at 50 μg/ml (Southern Ab) (PAX2 peptides) | Binding value at 50 μg/ml (PAX2 peptides, first column) | Binding value at 50 μg/ml (PAX2 peptides, second column) |
| --- | --- | --- | --- | --- | --- | --- | --- | --- |
| CC(C)C[C@H](NC(=O)[C@H](C)NC(=O)[C@H](Cc1c[nH]cn1)NC(=O)[C@H](CC(=O)O)NC(=O)[C@H](CO)NC(=O)[C@@H](N)CCCCNS(=O)(=O)c1cccc2c(N(C)C)cccc12)C(=O)NCC(=O)N[C@H](C(=O)N[C@@H](CC(N)=O)C(=O)N[C@@H](CC(C)C)C(=O)N[C@@H](CCCNC(=N)N)C(=O)N[C@@H](CO)C(=O)N[C@@H](CC(=O)O)C(=O)N[C@@H](CC(N)=O)C(=O)N[C@@H](C)C(=O)N[C@@H](CCCCN)C(=O)N[C@@H](CCC(=O)O)C(=O)N1CCC[C@H]1C(=O)NCC(=O)N[C@@H](CC(=O)O)C(=O)N[C@@H](Cc1ccc(O)cc1)C(=O)N[C@@H](CC(N)=O)C(=O)N[C@@H](CS)C(=O)N[C@@H](CS)C(=O)NCC(=O)N[C@@H](CC(N)=O)C(=O)NCC(=O)N[C@@H](CC(N)=O)C(=O)N[C@@H](CO)C(=O)N[C@H](C(N)=O)[C@@H](C)O)[C@@H](C)O [ZElan070] (H-K(Dansyl)SDHALGTNLRSDNAKEPGDYNCCGNGNST-NH2) | 0.59 | 0.97 | 0.39 | – | – | – | – | – |
| CC(C)C[C@H](NC(=O)[C@H](CC(N)=O)NC(=O)[C@@H](N)CCCCNS(=O)(=O)c1cccc2c(N(C)C)cccc12)C(=O)N[C@@H](CCCNC(=N)N)C(=O)N[C@@H](CO)C(=O)N[C@@H](CC(=O)O)C(=O)N[C@@H](CC(N)=O)C(=O)N[C@@H](C)C(=O)N[C@@H](CCCCN)C(=O)N[C@@H](CCC(=O)O)C(=O)N1CCC[C@H]1C(=O)NCC(=O)N[C@@H](CC(=O)O)C(=O)N[C@@H](Cc1ccc(O)cc1)C(=O)N[C@@H](CC(N)=O)C(=O)N[C@@H](CS)C(=O)N[C@@H](CS)C(=O)NCC(=O)N[C@@H](CC(N)=O)C(=O)NCC(=O)N[C@@H](CC(N)=O)C(=O)N[C@@H](CO)C(=O)N[C@H](C(=O)NCC(=O)N[C@@H](CCCNC(=N)N)C(=O)N[C@@H](CCCCN)C(=O)N[C@H](C(=O)N[C@@H](Cc1ccccc1)C(=O)N[C@@H](CC(N)=O)C(=O)N[C@@H](CCCNC(=N)N)C(N)=O)C(C)C)[C@@H](C)O [ZElan071] (H-K(Dansyl)NLRSDNAKEPGDYNCCGNGNSTGRKVFNR-NH2) | – | 0.89 | 0.75 | – | – | – | – | – |
| CC[C@H](C)[C@H](NC(=O)[C@H](C)NC(=O)[C@H](CO)NC(=O)[C@@H]1CCCN1C(=O)[C@H](CCCNC(=N)N)NC(=O)[C@H](CCCNC(=N)N)NC(=O)[C@H](CC(N)=O)NC(=O)[C@H](Cc1ccccc1)NC(=O)[C@@H](NC(=O)[C@H](CCCCN)NC(=O)[C@H](CCCNC(=N)N)NC(=O)CNC(=O)[C@@H](NC(=O)[C@H](CO)NC(=O)[C@H](CC(N)=O)NC(=O)CNC(=O)[C@H](CC(N)=O)NC(=O)CNC(=O)[C@H](CS)NC(=O)[C@H](CS)NC(=O)[C@H](CC(N)=O)NC(=O)[C@H](Cc1ccc(O)cc1)NC(=O)[C@H](CC(=O)O)NC(=O)CNC(=O)[C@@H]1CCCN1C(=O)[C@@H](N)CCCCNS(=O)(=O)c1cccc2c(N(C)C)cccc12)[C@@H](C)O)C(C)C)C(=O)N1CCC[C@H]1C(=O)N[C@H](C(N)=O)[C@@H](C)O [ZElan072] (H-K(Dansyl)PGDYNCCGNGNSTGRKVFNRRPSAIPT-NH2) | 0.83 | 0.61 | 0.88 | – | – | – | – | – |
| CC(C)C[C@H](NC(=O)[C@H](CCCNC(=N)N)NC(=O)[C@H](CCCNC(=N)N)NC(=O)[C@H](CC(N)=O)NC(=O)[C@H](Cc1c[nH]cn1)NC(=O)[C@H](CO)NC(=O)[C@H](C)NC(=O)[C@@H](N)CCCCNS(=O)(=O)c1cccc2c(N(C)C)cccc12)C(=O)N[C@@H](CCCNC(=N)N)C(=O)N[C@H](C(=O)N[C@@H](CCCNC(=N)N)C(N)=O)[C@@H](C)O [ZElan073] (H-K(Dansyl)ASHNRRLRTR-NH2) | – | – | – | 0.07 | 0.66 | 0.49 | −0.11 | 0.49 |
| CC(C)C[C@H](NC(=O)[C@H](CCCNC(=N)N)NC(=O)[C@H](CCCNC(=N)N)NC(=O)[C@H](CC(N)=O)NC(=O)[C@H](Cc1c[nH]cn1)NC(=O)[C@H](C)NC(=O)[C@H](CO)NC(=O)[C@@H](N)CCCCNS(=O)(=O)c1cccc2c(N(C)C)cccc12)C(=O)N[C@@H](CCCNC(=N)N)C(=O)N[C@H](C(=O)N[C@@H](CCCNC(=N)N)C(N)=O)[C@@H](C)O [ZElan074] (H-K(Dansyl)SAHNRRLRTR-NH2) | – | – | – | 0.06 | 0.71 | 0.48 | 0.82 | 0.52 |
| CC(C)C[C@H](NC(=O)[C@H](CCCNC(=N)N)NC(=O)[C@H](CCCNC(=N)N)NC(=O)[C@H](CC(N)=O)NC(=O)[C@H](C)NC(=O)[C@H](CO)NC(=O)[C@H](CO)NC(=O)[C@@H](N)CCCCNS(=O)(=O)c1cccc2c(N(C)C)cccc12)C(=O)N[C@@H](CCCNC(=N)N)C(=O)N[C@H](C(=O)N[C@@H](CCCNC(=N)N)C(N)=O)[C@@H](C)O [ZElan075] (H-K(Dansyl)SSANRRLRTR-NH2) | – | – | – | 0.13 | 0.47 | 0.32 | 0.52 | 0.38 |
| CC(C)C[C@H](NC(=O)[C@H](CCCNC(=N)N)NC(=O)[C@H](CCCNC(=N)N)NC(=O)[C@H](C)NC(=O)[C@H](Cc1c[nH]cn1)NC(=O)[C@H](CO)NC(=O)[C@H](CO)NC(=O)[C@@H](N)CCCCNS(=O)(=O)c1cccc2c(N(C)C)cccc12)C(=O)N[C@@H](CCCNC(=N)N)C(=O)N[C@H](C(=O)N[C@@H](CCCNC(=N)N)C(N)=O)[C@@H](C)O [ZElan076] (H-K(Dansyl)SSHARRLRTR-NH2) | – | – | – | 0.08 | 0.60 | 0.42 | 1.00 | 0.41 |
| CC(C)C[C@H](NC(=O)[C@H](CCCNC(=N)N)NC(=O)[C@H](C)NC(=O)[C@H](CC(N)=O)NC(=O)[C@H](Cc1c[nH]cn1)NC(=O)[C@H](CO)NC(=O)[C@H](CO)NC(=O)[C@@H](N)CCCCNS(=O)(=O)c1cccc2c(N(C)C)cccc12)C(=O)N[C@@H](CCCNC(=N)N)C(=O)N[C@H](C(=O)N[C@@H](CCCNC(=N)N)C(N)=O)[C@@H](C)O [ZElan077] (H-K(Dansyl)SSHNARLRTR-NH2) | – | – | – | 0.20 | 0.73 | 0.52 | 0.76 | 0.54 |
| CC(C)C[C@H](NC(=O)[C@H](C)NC(=O)[C@H](CCCNC(=N)N)NC(=O)[C@H](CC(N)=O)NC(=O)[C@H](Cc1c[nH]cn1)NC(=O)[C@H](CO)NC(=O)[C@H](CO)NC(=O)[C@@H](N)CCCCNS(=O)(=O)c1cccc2c(N(C)C)cccc12)C(=O)N[C@@H](CCCNC(=N)N)C(=O)N[C@H](C(=O)N[C@@H](CCCNC(=N)N)C(N)=O)[C@@H](C)O [ZElan078] (H-K(Dansyl)SSHNRALRTR-NH2) | – | – | – | 0.11 | 0.68 | 0.47 | 0.87 | 0.69 |
| C[C@H](NC(=O)[C@H](CCCNC(=N)N)NC(=O)[C@H](CCCNC(=N)N)NC(=O)[C@H](CC(N)=O)NC(=O)[C@H](Cc1c[nH]cn1)NC(=O)[C@H](CO)NC(=O)[C@H](CO)NC(=O)[C@@H](N)CCCCNS(=O)(=O)c1cccc2c(N(C)C)cccc12)C(=O)N[C@@H](CCCNC(=N)N)C(=O)N[C@H](C(=O)N[C@@H](CCCNC(=N)N)C(N)=O)[C@@H](C)O [ZElan079] (H-K(Dansyl)SSHNRRARTR-NH2) | – | – | – | 0.31 | 0.83 | 0.53 | 0.97 | 0.68 |
| CC(C)C[C@H](NC(=O)[C@H](CCCNC(=N)N)NC(=O)[C@H](CCCNC(=N)N)NC(=O)[C@H](CC(N)=O)NC(=O)[C@H](Cc1c[nH]cn1)NC(=O)[C@H](CO)NC(=O)[C@H](CO)NC(=O)[C@@H](N)CCCCNS(=O)(=O)c1cccc2c(N(C)C)cccc12)C(=O)N[C@@H](C)C(=O)N[C@H](C(=O)N[C@@H](CCCNC(=N)N)C(N)=O)[C@@H](C)O [ZElan080] (H-K(Dansyl)SSHNRRLATR-NH2) | – | – | – | 0.23 | 0.67 | 0.38 | 0.84 | 0.45 |
| CC(C)C[C@H](NC(=O)[C@H](CCCNC(=N)N)NC(=O)[C@H](CCCNC(=N)N)NC(=O)[C@H](CC(N)=O)NC(=O)[C@H](Cc1c[nH]cn1)NC(=O)[C@H](CO)NC(=O)[C@H](CO)NC(=O)[C@@H](N)CCCCNS(=O)(=O)c1cccc2c(N(C)C)cccc12)C(=O)N[C@@H](CCCNC(=N)N)C(=O)N[C@@H](C)C(=O)N[C@@H](CCCNC(=N)N)C(N)=O [ZElan081] (H-K(Dansyl)SSHNRRLRAR-NH2) | – | – | – | 0.01 | – | – | 0.89 | 0.47 |
| CC(C)C[C@H](NC(=O)[C@H](CCCNC(=N)N)NC(=O)[C@H](CCCNC(=N)N)NC(=O)[C@H](CC(N)=O)NC(=O)[C@H](Cc1c[nH]cn1)NC(=O)[C@H](CO)NC(=O)[C@H](CO)NC(=O)[C@@H](N)CCCCNS(=O)(=O)c1cccc2c(N(C)C)cccc12)C(=O)N[C@@H](CCCNC(=N)N)C(=O)N[C@H](C(=O)N[C@@H](C)C(N)=O)[C@@H](C)O [ZElan082] (H-K(Dansyl)SSHNRRLRTA-NH2) | – | – | – | 0.00 | – | – | 0.92 | 0.40 |
